Measurements from ChEMBL document CHEMBL4321836, “Discovery of BAY-298 and BAY-899: Tetrahydro-1,6-naphthyridine-Based, Potent, and Selective Antagonists of the Luteinizing Hormone Receptor Which Reduce Sex Hormone Levels in Vivo” (J Med Chem, 2019).
Calls of active or inactive are those of the source. The rule behind the calls is not given here.

What was measured:
[1] = biological target: T1, Follicle-stimulating hormone receptor (Homo sapiens, UniProt P23945); test: Antagonist activity at human follicle stimulating hormone receptor assessed as reduction in agonist-induced cAMP production preincubated for 20 mins followed by agonist solution addition and measured after 120 mins by cell based TR-FRET assay; assay type: functional
T1 sequence (P23945 whole entry): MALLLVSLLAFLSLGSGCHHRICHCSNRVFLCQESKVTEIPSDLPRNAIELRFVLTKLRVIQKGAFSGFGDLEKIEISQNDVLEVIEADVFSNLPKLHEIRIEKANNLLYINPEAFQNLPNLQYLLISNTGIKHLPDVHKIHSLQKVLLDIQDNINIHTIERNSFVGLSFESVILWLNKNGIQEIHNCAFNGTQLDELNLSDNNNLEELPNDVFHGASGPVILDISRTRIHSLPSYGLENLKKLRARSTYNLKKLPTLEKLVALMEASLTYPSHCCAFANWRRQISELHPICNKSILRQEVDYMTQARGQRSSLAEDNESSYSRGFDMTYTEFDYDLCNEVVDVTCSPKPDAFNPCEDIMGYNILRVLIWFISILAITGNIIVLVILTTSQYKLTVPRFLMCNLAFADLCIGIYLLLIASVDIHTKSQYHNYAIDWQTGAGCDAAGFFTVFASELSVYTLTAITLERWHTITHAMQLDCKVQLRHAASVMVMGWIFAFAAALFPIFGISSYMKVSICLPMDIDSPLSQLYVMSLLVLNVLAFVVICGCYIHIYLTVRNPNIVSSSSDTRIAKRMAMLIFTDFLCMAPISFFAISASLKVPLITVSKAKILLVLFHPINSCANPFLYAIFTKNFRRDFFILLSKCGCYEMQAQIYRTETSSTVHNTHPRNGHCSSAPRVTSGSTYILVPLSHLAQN

[2] = biological target: Lutropin-choriogonadotropic hormone receptor (Rattus norvegicus, UniProt P16235); test: Antagonist activity at rat luteinizing hormone receptor expressed in rat ovary granulosa GLHR15 cell suspension assessed as reduction in agonist-induced cAMP production preincubated for 30 mins followed by agonist solution addition after 30 mins by cell based TR-FRET assay; assay type: functional
Thyrotropin receptor = Thyrotropin receptor (Homo sapiens, UniProt P16473); test: Antagonist activity at human thyroid stimulating hormone receptor expressed in rat HTC133 cells assessed as reduction in agonist-induced cAMP production preincubated for 20 mins followed by agonist solution addition and measured after 60 mins by cell based TR-FRET assay; assay type: functional
[3] = biological target: Lutropin-choriogonadotropic hormone receptor (Mus musculus, UniProt P30730); test: Antagonist activity at luteinizing hormone receptor in mouse MLTC-1 cells assessed as reduction in agonist-induced cAMP production preincubated for 30 mins followed by agonist solution addition and measured after 30 mins by cell based TR-FRET assay; assay type: functional
[4] = biological target: T2, Lutropin-choriogonadotropic hormone receptor (Homo sapiens, UniProt P22888); test: Antagonist activity at human luteinizing hormone receptor assessed as reduction in agonist-induced cAMP production preincubated for 20 mins followed by agonist solution addition after 60 mins by cell based TR-FRET assay; assay type: functional
[5] = Lipophilicity, logD of the compound at pH 7.5 by reversed-phase HPLC; assay type: physicochemical; settings: buffer
[6] = Clearance in human liver microsomes at 1 uM measured after 2 to 60 mins in presence of glucose-6-phosphate by LC-MS/MS analysis; assay type: ADME, Microsome
[7] = Maximum oral bioavailability in human liver microsomes based well stirred liver model at 1 uM measured after 2 to 60 mins in presence of glucose-6-phosphate by LC-MS/MS analysis; assay type: ADME, Microsome; settings: read-out: Fmax
[8] = biological target: Relaxin receptor 1 (Homo sapiens) (UniProt Q9HBX9); test: Antagonist activity at human RXFP1 assessed as reduction in agonist-induced cAMP production preincubated for 20 mins followed by mutRelaxin agonist addition measured after 60 mins by cell based TR-FRET assay; assay type: functional
[9] = biological target: T2, Lutropin-choriogonadotropic hormone receptor; test: Agonist activity at human luteinizing hormone receptor incubated for 60 mins by cell based TR-FRET assay; settings: human, 1 h

Chain of Lutropin-choriogonadotropic hormone receptor (Rattus norvegicus, UniProt P16235) (P16235 whole entry): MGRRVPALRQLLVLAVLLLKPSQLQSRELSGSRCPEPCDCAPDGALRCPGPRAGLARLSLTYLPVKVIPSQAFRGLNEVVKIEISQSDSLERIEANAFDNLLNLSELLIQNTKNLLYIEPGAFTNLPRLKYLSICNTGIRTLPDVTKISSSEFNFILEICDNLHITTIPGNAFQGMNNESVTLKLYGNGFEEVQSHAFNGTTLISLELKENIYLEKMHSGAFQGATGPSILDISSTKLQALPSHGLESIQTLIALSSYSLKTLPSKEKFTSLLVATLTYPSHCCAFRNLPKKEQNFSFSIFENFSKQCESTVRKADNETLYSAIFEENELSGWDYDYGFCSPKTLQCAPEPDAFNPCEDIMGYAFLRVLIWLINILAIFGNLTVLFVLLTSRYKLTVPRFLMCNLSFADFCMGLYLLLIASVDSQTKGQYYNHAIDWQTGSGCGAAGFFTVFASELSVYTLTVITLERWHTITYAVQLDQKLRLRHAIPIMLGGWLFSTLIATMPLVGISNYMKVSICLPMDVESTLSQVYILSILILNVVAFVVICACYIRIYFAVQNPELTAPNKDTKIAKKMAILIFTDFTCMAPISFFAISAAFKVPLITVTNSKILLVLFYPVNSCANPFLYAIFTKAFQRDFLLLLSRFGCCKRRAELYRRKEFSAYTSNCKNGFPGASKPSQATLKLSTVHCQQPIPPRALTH
Chain of Lutropin-choriogonadotropic hormone receptor (Mus musculus, UniProt P30730) (P30730 whole entry): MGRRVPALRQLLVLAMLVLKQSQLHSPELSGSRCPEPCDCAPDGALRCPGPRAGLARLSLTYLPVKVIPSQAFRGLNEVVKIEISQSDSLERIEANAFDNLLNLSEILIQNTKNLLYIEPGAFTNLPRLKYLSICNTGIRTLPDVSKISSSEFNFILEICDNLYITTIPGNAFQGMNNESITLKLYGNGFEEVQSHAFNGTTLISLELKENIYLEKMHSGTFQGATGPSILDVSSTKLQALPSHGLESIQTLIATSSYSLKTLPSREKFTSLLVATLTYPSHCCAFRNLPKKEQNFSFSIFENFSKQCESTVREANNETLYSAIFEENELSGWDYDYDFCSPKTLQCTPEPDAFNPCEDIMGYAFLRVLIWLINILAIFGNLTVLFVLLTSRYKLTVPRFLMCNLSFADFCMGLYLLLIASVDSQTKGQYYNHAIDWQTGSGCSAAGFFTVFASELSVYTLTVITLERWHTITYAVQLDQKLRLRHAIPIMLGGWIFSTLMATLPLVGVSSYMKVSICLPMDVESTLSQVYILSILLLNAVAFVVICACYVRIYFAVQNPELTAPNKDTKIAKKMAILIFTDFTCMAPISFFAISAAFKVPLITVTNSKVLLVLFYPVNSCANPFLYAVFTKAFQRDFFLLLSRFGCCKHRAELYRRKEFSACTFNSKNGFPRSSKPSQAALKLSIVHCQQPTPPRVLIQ
T2 sequence (P22888 whole entry): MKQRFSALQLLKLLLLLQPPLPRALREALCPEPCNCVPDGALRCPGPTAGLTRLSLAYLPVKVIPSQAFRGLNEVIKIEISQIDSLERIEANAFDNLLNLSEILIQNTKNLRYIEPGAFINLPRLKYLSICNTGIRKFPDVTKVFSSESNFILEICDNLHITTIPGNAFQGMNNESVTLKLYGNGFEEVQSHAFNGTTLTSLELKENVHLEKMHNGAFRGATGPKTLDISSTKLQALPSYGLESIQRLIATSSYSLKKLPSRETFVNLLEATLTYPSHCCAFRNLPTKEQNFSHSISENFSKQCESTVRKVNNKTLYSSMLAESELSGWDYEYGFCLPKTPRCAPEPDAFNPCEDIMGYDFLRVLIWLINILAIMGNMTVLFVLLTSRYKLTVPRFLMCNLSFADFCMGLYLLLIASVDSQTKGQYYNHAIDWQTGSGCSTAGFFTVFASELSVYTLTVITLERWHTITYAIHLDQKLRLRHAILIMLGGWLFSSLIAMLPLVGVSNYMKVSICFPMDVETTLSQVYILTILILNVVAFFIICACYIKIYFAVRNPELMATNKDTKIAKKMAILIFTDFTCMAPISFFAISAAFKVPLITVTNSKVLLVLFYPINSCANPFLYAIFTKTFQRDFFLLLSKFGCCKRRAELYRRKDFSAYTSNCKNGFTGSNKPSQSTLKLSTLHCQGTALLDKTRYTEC
Chain of Thyrotropin receptor (P16473 whole entry): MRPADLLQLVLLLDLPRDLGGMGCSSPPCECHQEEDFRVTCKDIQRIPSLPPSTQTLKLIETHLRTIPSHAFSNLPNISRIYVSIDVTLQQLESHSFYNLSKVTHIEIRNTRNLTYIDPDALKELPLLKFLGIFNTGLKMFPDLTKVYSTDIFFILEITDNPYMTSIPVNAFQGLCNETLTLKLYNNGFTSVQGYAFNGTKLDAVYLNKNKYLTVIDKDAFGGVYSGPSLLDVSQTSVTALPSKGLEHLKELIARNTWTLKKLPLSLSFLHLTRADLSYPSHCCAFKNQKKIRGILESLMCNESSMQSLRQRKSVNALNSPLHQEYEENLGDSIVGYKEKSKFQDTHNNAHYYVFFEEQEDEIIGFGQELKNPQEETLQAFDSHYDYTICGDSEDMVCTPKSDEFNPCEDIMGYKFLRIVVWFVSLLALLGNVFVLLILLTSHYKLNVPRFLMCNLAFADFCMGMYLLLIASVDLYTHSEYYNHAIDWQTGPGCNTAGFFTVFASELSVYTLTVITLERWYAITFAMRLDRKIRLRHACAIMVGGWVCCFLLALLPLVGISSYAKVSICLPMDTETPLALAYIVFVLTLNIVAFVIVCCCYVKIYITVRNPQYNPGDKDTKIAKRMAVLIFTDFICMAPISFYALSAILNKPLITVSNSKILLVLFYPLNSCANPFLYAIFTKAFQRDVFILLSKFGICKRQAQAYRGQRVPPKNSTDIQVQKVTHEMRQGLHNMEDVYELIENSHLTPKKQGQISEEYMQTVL
Chain of Relaxin receptor 1 (Homo sapiens) (Q9HBX9 whole entry): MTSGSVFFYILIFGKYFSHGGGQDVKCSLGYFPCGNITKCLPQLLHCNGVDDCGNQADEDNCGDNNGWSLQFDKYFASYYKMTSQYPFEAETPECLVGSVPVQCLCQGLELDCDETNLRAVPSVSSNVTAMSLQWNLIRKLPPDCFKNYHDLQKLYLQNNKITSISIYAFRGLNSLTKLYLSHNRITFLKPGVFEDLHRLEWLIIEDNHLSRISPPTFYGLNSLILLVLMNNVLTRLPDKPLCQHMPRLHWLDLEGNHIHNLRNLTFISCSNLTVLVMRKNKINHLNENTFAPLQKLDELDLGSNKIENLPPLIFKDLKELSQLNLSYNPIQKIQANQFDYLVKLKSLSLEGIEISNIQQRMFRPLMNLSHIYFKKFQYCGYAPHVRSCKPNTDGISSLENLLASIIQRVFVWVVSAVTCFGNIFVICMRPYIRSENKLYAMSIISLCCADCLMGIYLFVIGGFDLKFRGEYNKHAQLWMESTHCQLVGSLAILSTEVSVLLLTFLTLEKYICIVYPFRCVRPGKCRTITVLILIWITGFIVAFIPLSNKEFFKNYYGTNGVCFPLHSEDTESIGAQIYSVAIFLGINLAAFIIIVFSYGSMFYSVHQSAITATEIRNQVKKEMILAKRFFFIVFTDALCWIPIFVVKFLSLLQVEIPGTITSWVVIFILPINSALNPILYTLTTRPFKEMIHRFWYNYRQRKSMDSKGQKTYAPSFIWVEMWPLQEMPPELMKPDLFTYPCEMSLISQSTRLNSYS

SMILES	IC50 [4] [nM]	chromatographic logD [5]	CLhep predicted at 1 µM [6] [mL/min/kg]	Fh at 1 µM [7] [%]	other results
COc1ccc([C@@H]2c3ccsc3CCN2C(=O)Nc2cc(Cl)cc(Cl)c2)cc1	6790				IC50 [1]: > 16500 nM; IC50 [2]: 4890 nM; IC50 (Thyrotropin receptor): > 30000 nM; IC50 [3]: > 30000 nM
COc1cc(NC(=O)N2CCc3sccc3[C@@H]2c2ccccc2)cc(OC)c1	193				
COc1ccc([C@H]2c3ccsc3CCN2C(=O)Nc2cc(Cl)cc(Cl)c2)cc1	403				IC50 [1]: > 16500 nM; IC50 [2]: 412 nM; IC50 (Thyrotropin receptor): > 30000 nM; IC50 [3]: > 30000 nM
O=C(Nc1ccc(Oc2ccc(F)cc2)nc1)N1CCc2ncccc2[C@@H]1c1ccc(F)cc1	312	3.2	3.33	83	
O=C(Nc1ccc(Oc2ccc(F)cc2)cc1)N1CCc2ncccc2[C@@H]1c1ccc(F)cc1	102	3.9	5	75	
O=C(Nc1ccccc1)N1CCc2sccc2C1c1ccc(Cl)cc1 (racemic)	95	4	16.7	26	
O=C(Nc1ccc(F)c(Cl)c1)N1CCc2sccc2C1c1ccc(Cl)cc1 (racemic)	174	5.1			
COc1ccc(C2c3ccsc3CCN2C(=O)Nc2ccc(F)c(C(N)=O)c2)cc1 (racemic)	1680	2.8			
NC(=O)c1ccc(C2c3ccsc3CCN2C(=O)Nc2cc(Cl)cc(Cl)c2)cc1 (racemic)	> 16500	3.7			
O=C(Nc1ccc(F)c(OC(F)(F)F)c1)N1CCc2sccc2C1c1ccc(Cl)cc1 (racemic)	81	5.2	13.3	42	
Cc1ccccc1C1c2ccsc2CCN1C(=O)Nc1cc(Cl)cc(Cl)c1 (racemic)	> 16500				
O=C(Nc1cc(Cl)cc(Cl)c1)N1CCc2sccc2C1c1ccc(F)c(F)c1 (racemic)	1850		13.3	40	
COc1ccc(C2c3ccsc3CCN2C(=O)Nc2ccc(F)c(N3CCS(=O)(=O)CC3)c2)cc1 (racemic)	> 16500	3.1			
Cc1ccc(C2c3ccsc3CCN2C(=O)Nc2cc(Cl)cc(Cl)c2)cc1 (racemic)	2610	5.5	20	8	
O=C(Nc1cc(Cl)cc(Cl)c1)N1CCc2sccc2C1c1ccc(C(F)(F)F)cc1 (racemic)	3650		11.7	51	
O=C(Nc1cc(Cl)cc(Cl)c1)N1CCc2sccc2C1c1cccnc1 (racemic)	7470	4.2	20	11	
COc1ccc(C2c3ccsc3CCN2C(=S)Nc2cc(OC)cc(OC)c2)cc1 (racemic)	3320	3.7			

SMILES	IC50 [4] [nM]	chromatographic logD [5]	CLhep predicted at 1 µM [6] [mL/min/kg]	Fh at 1 µM [7] [%]	other results
COc1ccc(C2c3ccsc3CCN2C(=O)Nc2cc(OC)cc(OC)c2)cc1 (racemic)	207	3.6	21.7	3	
CC(C)c1ccc(C2c3ccsc3CCN2C(=O)Nc2cc(Cl)cc(Cl)c2)cc1 (racemic)	> 16500				
O=C(Nc1ccc(Oc2ccc(F)cc2)cc1)N1CCc2sccc2C1c1ccc(Cl)cc1 (racemic)	127	5.3	10	56	
O=C(Nc1cc(Cl)cc(Cl)c1)N1CCc2sccc2C1c1ccc(=O)[nH]c1 (racemic)	2310	3.7			
COc1ccc(C2c3ccsc3CCN2C(=O)Cc2cc(C)cc(C)c2)cc1 (racemic)	> 16000	4.8			
O=C(Nc1cc(Cl)cc(Cl)c1)N1CCc2sccc2C1c1ccccc1 (racemic)	1620				
O=C(Nc1cc(Cl)cc(Cl)c1)N1CCc2sccc2C1c1ccccn1 (racemic)	> 16500				
O=C(Nc1cc(Cl)cc(Cl)c1)N1CCc2sccc2C1c1ccccc1F (racemic)	3240	4.8	18.3	17	
O=C(Nc1cc(Cl)cc(Cl)c1)N1CCc2sccc2C1c1ccncc1 (racemic)	5180	4.2			
COc1ccc(C2c3ccsc3CCN2C(=O)Nc2ccc(Cl)cc2)cc1 (racemic)	107	3.9	18.3	18	
O=C(Nc1cccc(Oc2ccccc2)c1)N1CCc2sccc2C1c1ccc(Cl)cc1 (racemic)	332	5.4			
COc1ccc(C2c3ccsc3CCN2C(=O)Nc2cc(C)cc(C)c2)cc1 (racemic)	580	4.1			
COc1ccc(C2c3ccsc3CCN2C(=O)Nc2cccc(Cl)c2)cc1 (racemic)	275	4.2	20	7	
O=C(Nc1cc(Cl)cc(Cl)c1)N1CCc2sccc2C1c1cccc(F)c1 (racemic)	3130	5.1			
O=C(Nc1cc(Cl)cc(Cl)c1)N1CCc2sccc2C1c1ccc(Cl)cc1 (racemic)	486		11.7	48	
COc1ccc(C2c3ccsc3CCN2C(=O)Nc2cc(Cl)cc(Cl)c2)cc1 (racemic)	378	5	21.7	3	IC50 [1]: > 16500 nM; IC50 [2]: 212 nM; IC50 (Thyrotropin receptor): > 30000 nM; IC50 [3]: > 30000 nM; inhibition [8]: inactive; Activity [9]: Not Active
